From publication PMC8208785, “Therapeutic efficacy of novel memantine nitrate MN‐08 in animal models of Alzheimer’s disease” (Aging Cell, 2021)
“Also recorded” adds a separate entry of the source.

Assays:
[1] = system: cerebellar granule neurons (CGNs); test: MTT cell viability, glutamate-induced excitotoxicity in CGNs; assay type: cell-based, rat; settings: LY294002 incubated with MN‐08
Method: Excessive glutamate‐induced excitotoxicity might cause dysfunctions of cellular pathways, subsequently resulting in synaptic dysfunctions and neuronal loss. To evaluate the neuroprotective effects of MN‐08 against excitotoxicity, cerebellar granule neurons (CGNs) were treated with MN‐08 at the concentrations from 1 to 50 µM or memantine from 1 to 10 μM for 2 h, and then exposed to 100 μM glutamate for 24 h. […] Similarly, in APP/PS1 mice, MN‐08 prevented neuronal loss in the hippocampus by upregulating the expression ratio of Bcl‐2/Bax and downregulating the expression ratio of cleaved Caspase‐3 to Caspase‐3 (Figure S6).
CGNs were prepared from the 8-day-old Sprague–Dawley rats as described in our previous publication (Li et al., 2005). Briefly, animals were anesthetized and sacrificed, and their cerebella were collected. […]
Neurotoxicity was assessed using the tetrazolium salt 3-(4,5-dimethylthiazol-2-yl)-2,5- diphenyltetrazolium bromide dye (MTT) assay as previous publication (Luo et al., 2010). […] Cell viability was evaluated by observing colorimetric changes using a CLARIOstar plus Microplate Reader (BMG Labtech, Ortenberg, Germany) at a test wavelength of 570 nm with 655 nm as a reference wavelength. Data were expressed as a percentage of control cultures.

[2] = system: ERK and PI3K/Akt/GSK3β pathway; test: Western blotting of p-ERK, p-Akt, p-GSK3β and Bcl-2 in glutamate-challenged CGNs; assay type: cell-based, rat; settings: LY294002 incubated with MN‐08
Source text: To further characterize the neuroprotection of MN‐08, the level of the key signaling molecules, such as ERK, Akt, and GSK3β, was examined by Western blotting assay. […] Moreover, pre‐treatment with MN‐08 reversed expression of both p‐Akt and p‐GSK3β with the challenge of glutamate. Akt is an important downstream member of PI3K. To further confirm whether the PI3K/Akt pathway was associated with the neuroprotection of MN‐08 against glutamate‐induced excitotoxicity, specific PI3K inhibitor LY294002 was applied and incubated with MN‐08. […] Taken together, MN‐08 might protect against glutamate‐induce cytotoxicity by reversing the dysregulations of ERK pathway and PI3K/Akt/GSK3β pathway.
Western blotting analysis was performed as previously described with minor modifications (Huang, Li, & Nan, 2017). Proteins were extracted from hippocampal tissue and their concentrations determined by the BCA protein assay kit (Fdbio science, Hangzhou, China). The protein (20 μg) was separated on a 12% SDS-PAGE gel and then transferred to PVDF membranes. The membranes were blocked using 5 % nonfat dry milk for 2 h. The protein blots were incubated with the corresponding primary antibodies against p-Akt (#4060, 1:1000, Cell Signaling Technology), Akt (#4685, 1:1000, Cell Signaling Technology), BACE1 (#5606, 1:1000, Cell Signaling Technology), PS1 (#5643, 1:1000, Cell Signaling Technology), p-GSK3β (#5558, 1:1000, Cell Signaling Technology), GSK3β (#12456, 1:1000, Cell Signaling Technology), Bcl-2 (#3498, 1:1000, Cell Signaling Technology), Bax (#5023, 1:1000, Cell Signaling Technology), Cleaved caspase-3 (#9661, 1:1000, Cell Signaling Technology), Caspase-3 (#9662, 1:1000, Cell Signaling Technology), ADAM10 (#14194, 1:1000, Cell Signaling Technology), APP (#ab241592, 1:1000, Abcam), sAPPα (#ab126723, 1:1000, Abcam), NEP (#ab216341, 1:1000, Abcam), Synapsin I (#ab64581, 1:1000, Abcam), Synapsin II (#ab76494, 1:1000, Abcam), NR2A (#ab124913, 1:2000, Abcam), PSD95 (#ab18258, 1:1000, Abcam), Synaptophysin (#ab32127, 1:1000, Abcam), IDE (#ab133561, 1:1000, Abcam), Drebin (#ab178408, 1:1000, Abcam) and Tau-5 (#ab80579, 1:2000, Abcam) overnight at 4°C. After washing 3 times, the membranes were incubated with the respective HRP-conjugated secondary antibody. ECL Western blotting Detection Reagents (Fdbio science, Hangzhou, China) were used to perform Chemiluminescence detection. Quantitative analysis of protein bands was conducted by the Carestream system (Carestream Health, Inc, USA).
CGNs were prepared from the 8-day-old Sprague–Dawley rats as described in our previous publication (Li et al., 2005). Briefly, animals were anesthetized and sacrificed, and their cerebella were collected. Then, the freshly collected cerebella were rinsed in cold Kreb’s buffer-BSA and digested with 0.025 % trypsin incubated in a 37°C for 15 min. The reaction was stopped, and the single cell suspension was obtained through pipetting up and down the sedimentary tissue. CGNs were seeded in basal modified Eagle’s medium (ThermoFisher Scientific, Waltham, MA, USA) supplemented with 10 % fetal bovine serum, 25 mM KCl, 2 mM glutamine and 100 units/mL penicillin/streptomycin at a density of 1.5×10^6 cells/mL. Cytosine arabinoside (10 μM) was added to inhibit the growth of non-neuronal cells at 24 h after seeding. All experiments were carried out after 8 days in vitro. […]

3×Tg‐AD mice = test: Golgi staining of dendritic spines and Western blotting of synaptic markers in 3×Tg-AD mice; assay type: in vivo; settings: donepezil 1.3 mg/kg
Method: Triple transgenic 3×Tg‐AD mice were acquired from Jackson Laboratory and fostered in the Shenzhen Center for Disease Control and Prevention (Shenzhen, China). Eight‐month‐old 3×Tg‐AD mice were categorized into six groups: (1) 3×Tg‐AD +Vehicle group; (2) 3×Tg‐AD +MN‐08 (3 mg/kg) group; (3) 3×Tg‐AD +MN‐08 (6 mg/kg) group; (4) 3×Tg‐AD +MN‐08 (12 mg/kg) group; (5) 3×Tg‐AD +Memantine (Mem, 5 mg/kg) group; (6) 3×Tg‐AD +Donepezil (Done, 1.3 mg/kg, once daily) group; (7) Eight‐month‐old B6129SF2/J mice as a control group. MN‐08 and memantine were given twice daily (Done, once daily) by gastric gavage for 4 months from 8 months of age.
Golgi staining was used to determine hippocampal dendritic spine density by a Rapid Golgi Stain Kit (FD Neurotechnologies, Columbia, MD, USA) according to the manufacturer’s instructions. The brain was removed after the behavioral tests and incubated with impregnation solution in the dark at room temperature for 1 week. Impregnation solution was replaced with solution A and stored in the dark for 3 days. Brain sections (100 μm thickness) were placed on gelatin-coated microscope slides and then immersed in ddH2O. Solution B, Solution C, 80 % ethanol and xylene were used for 10 min, sequentially. The dendritic spines of hippocampal neurons were analyzed and counted in a blinded manner from six sections per animal by light microscopy (Olympus, Tokyo, Japan).
Western blotting analysis was performed as previously described with minor modifications (Huang, Li, & Nan, 2017). Proteins were extracted from hippocampal tissue and their concentrations determined by the BCA protein assay kit (Fdbio science, Hangzhou, China). The protein (20 μg) was separated on a 12% SDS-PAGE gel and then transferred to PVDF membranes. The membranes were blocked using 5 % nonfat dry milk for 2 h. […] Quantitative analysis of protein bands was conducted by the Carestream system (Carestream Health, Inc, USA).

O=c1cc(N2CCOCC2)oc2c(-c3ccccc3)cccc12 [LY294002]
effect of LY294002 on the neuroprotective effects of MN‐08 against glutamate (MTT) [1]: canceled; also recorded: partially abolished | effect of LY294002 on upregulation of p‐Akt and p‐GSK3β by MN‐08 [2]: significantly abolished

COc1cc2c(cc1OC)C(=O)C(CC1CCN(Cc3ccccc3)CC1)C2 (stereo not drawn) [donepezil, reference compound]
reduction of dendritic spines (hippocampus CA1, Golgi staining) (3×Tg‐AD mice): markedly reversed
